Data as given in PubChem BioAssay (NCI).
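Dose response: 5 concentrations. Exposure: 48 h. Format: 96-well plates. Endpoint: linear interpolation; highest concentration if not reached. Here, GI50 denotes the concentration required for 50% inhibition of growth. TGI is the concentration that stops growth completely.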

Legend:
Assay in all cases: DTP human tumour cell line panel, 48 h; in the data active = GI50 below about 0.43 µM; inactive = the rest
786-0 renal = system: 786-0 renal
SK-MEL-5 melanoma = system: SK-MEL-5 melanoma
SNB-75 CNS = system: SNB-75 CNS
SF-539 CNS = system: SF-539 CNS
DU-145 prostate = system: DU-145 prostate
CCRF-CEM leukemia = system: CCRF-CEM leukemia
TK-10 renal = system: TK-10 renal
HCC-2998 colon = system: HCC-2998 colon
OVCAR-5 ovarian = system: OVCAR-5 ovarian
MDA-N = system: MDA-N
NCI-H460 lung = system: NCI-H460 lung
PC-3 prostate = system: PC-3 prostate
MOLT-4 leukemia = system: MOLT-4 leukemia
U251 CNS = system: U251 CNS
NCI/ADR-RES ovarian = system: NCI/ADR-RES ovarian
OVCAR-8 ovarian = system: OVCAR-8 ovarian
HT29 colon = system: HT29 colon
UO-31 renal = system: UO-31 renal
HOP-92 NSCLC = system: HOP-92 NSCLC
SR leukemia = system: SR leukemia
MDA-MB-435 = system: MDA-MB-435
HCT-15 colon = system: HCT-15 colon
SK-MEL-28 melanoma = system: SK-MEL-28 melanoma
UACC-62 melanoma = system: UACC-62 melanoma
COLO 205 colon = system: COLO 205 colon
LOX IMVI melanoma = system: LOX IMVI melanoma
A549 NSCLC = system: A549 NSCLC
SNB-19 CNS = system: SNB-19 CNS
HS 578T breast = system: HS 578T breast
NCI-H226 lung = system: NCI-H226 lung
OVCAR-4 ovarian = system: OVCAR-4 ovarian
MALME-3M melanoma = system: MALME-3M melanoma
SF-268 CNS = system: SF-268 CNS
M14 melanoma = system: M14 melanoma
RPMI-8226 leukemia = system: RPMI-8226 leukemia
K-562 leukemia = system: K-562 leukemia
NCI-H23 lung = system: NCI-H23 lung
CAKI-1 renal = system: CAKI-1 renal
MCF7 breast = system: MCF7 breast
MDA-MB-231 breast = system: MDA-MB-231 breast
ACHN renal = system: ACHN renal
HL-60(TB) leukemia = system: HL-60(TB) leukemia
KM12 colon = system: KM12 colon
SK-MEL-2 melanoma = system: SK-MEL-2 melanoma
OVCAR-3 ovarian = system: OVCAR-3 ovarian
HOP-62 NSCLC = system: HOP-62 NSCLC
SN12C renal = system: SN12C renal
BT-549 breast = system: BT-549 breast
A498 renal = system: A498 renal
SF-295 CNS = system: SF-295 CNS
IGROV1 ovarian = system: IGROV1 ovarian
SW-620 colon = system: SW-620 colon
SK-OV-3 ovarian = system: SK-OV-3 ovarian
NCI-H522 lung = system: NCI-H522 lung
T-47D breast = system: T-47D breast
RXF 393 renal = system: RXF 393 renal
EKVX NSCLC = system: EKVX NSCLC
HCT-116 colon = system: HCT-116 colon
UACC-257 melanoma = system: UACC-257 melanoma
KM20L2 colon = system: KM20L2 colon
LXFL 529 NSCLC = system: LXFL 529 NSCLC
DLD-1 colon = system: DLD-1 colon
DMS 273 small cell lung = system: DMS 273 small cell lung
HOP-18 NSCLC = system: HOP-18 NSCLC

CC[C@@H]1C(=O)OC[C@@H]1Cc1cncn1C
> 100 µM: TGI (786-0 renal) | TGI (SK-MEL-5 melanoma) | TGI (SNB-75 CNS) | TGI (SF-539 CNS) | TGI (DU-145 prostate) | TGI (CCRF-CEM leukemia) | TGI (TK-10 renal) | TGI (HCC-2998 colon) | TGI (OVCAR-5 ovarian) | TGI (MDA-N) | TGI (NCI-H460 lung) | TGI (PC-3 prostate) | TGI (MOLT-4 leukemia) | TGI (U251 CNS) | TGI (NCI/ADR-RES ovarian) | TGI (OVCAR-8 ovarian) | TGI (HT29 colon) | TGI (UO-31 renal) | TGI (HOP-92 NSCLC) | TGI (SR leukemia) | TGI (MDA-MB-435) | TGI (HCT-15 colon) | TGI (SK-MEL-28 melanoma) | TGI (UACC-62 melanoma) | TGI (COLO 205 colon) | TGI (LOX IMVI melanoma) | TGI (A549 NSCLC) | TGI (SNB-19 CNS) | TGI (HS 578T breast) | TGI (NCI-H226 lung) | TGI (OVCAR-4 ovarian) | TGI (MALME-3M melanoma) | TGI (SF-268 CNS) | TGI (M14 melanoma) | TGI (RPMI-8226 leukemia) | TGI (K-562 leukemia) | TGI (NCI-H23 lung) | TGI (CAKI-1 renal) | TGI (MCF7 breast) | TGI (MDA-MB-231 breast) | TGI (ACHN renal) | TGI (HL-60(TB) leukemia) | TGI (KM12 colon) | TGI (SK-MEL-2 melanoma) | TGI (OVCAR-3 ovarian) | TGI (HOP-62 NSCLC) | TGI (SN12C renal) | TGI (BT-549 breast) | TGI (A498 renal) | TGI (SF-295 CNS) | TGI (IGROV1 ovarian) | TGI (SW-620 colon) | TGI (SK-OV-3 ovarian) | TGI (NCI-H522 lung) | TGI (T-47D breast) | TGI (RXF 393 renal) | TGI (EKVX NSCLC) | TGI (HCT-116 colon) | TGI (UACC-257 melanoma)

CC1=CC[C@H](C(C)C)C(C(O)[C@@H](C)O[Si](c2ccccc2)(c2ccccc2)C(C)(C)C)C1=O (stereo partly specified)
32.4 µM: TGI (MDA-MB-231 breast)
54.4 µM: TGI (SNB-75 CNS)
54.8 µM: TGI (SF-268 CNS)
36.2 µM: TGI (OVCAR-5 ovarian) | TGI (CAKI-1 renal)
32.6 µM: TGI (M14 melanoma)
28.9 µM: TGI (EKVX NSCLC)
35.5 µM: TGI (OVCAR-3 ovarian) | TGI (A498 renal)
31.5 µM: TGI (UACC-257 melanoma)
31.8 µM: TGI (U251 CNS)
53 µM: TGI (MDA-N)
33.5 µM: TGI (SNB-19 CNS)
47.6 µM: TGI (COLO 205 colon) | TGI (HOP-62 NSCLC)
31.7 µM: TGI (TK-10 renal) | TGI (HT29 colon) | TGI (UO-31 renal)
40.2 µM: TGI (NCI-H23 lung)
64.8 µM: TGI (IGROV1 ovarian)
37.2 µM: TGI (NCI-H460 lung)
36.4 µM: TGI (HCT-15 colon)
48.3 µM: TGI (KM12 colon)
32 µM: TGI (SK-MEL-2 melanoma)
33.1 µM: TGI (SF-295 CNS)
45.7 µM: TGI (LOX IMVI melanoma)
44.2 µM: TGI (MCF7 breast)
29 µM: TGI (HCC-2998 colon)
79.7 µM: TGI (SK-OV-3 ovarian)
54.1 µM: TGI (OVCAR-8 ovarian)
37.9 µM: TGI (HOP-92 NSCLC) | TGI (SN12C renal)
51.3 µM: TGI (MDA-MB-435)
46.1 µM: TGI (T-47D breast)
37.6 µM: TGI (NCI-H522 lung)
44 µM: TGI (NCI-H226 lung)
44.1 µM: TGI (SF-539 CNS)
37.5 µM: TGI (BT-549 breast)
38.4 µM: TGI (A549 NSCLC)
63.8 µM: TGI (CCRF-CEM leukemia)
33.7 µM: TGI (SK-MEL-5 melanoma)
31.1 µM: TGI (ACHN renal)
32.7 µM: TGI (786-0 renal)
65.4 µM: TGI (DU-145 prostate)
28.7 µM: TGI (HCT-116 colon)
42.6 µM: TGI (HL-60(TB) leukemia)
52.8 µM: TGI (MALME-3M melanoma)
> 100 µM: TGI (MOLT-4 leukemia) | TGI (SR leukemia) | TGI (SK-MEL-28 melanoma) | TGI (K-562 leukemia)
33.6 µM: TGI (PC-3 prostate) | TGI (UACC-62 melanoma)
67 µM: TGI (HS 578T breast)
38.1 µM: TGI (NCI/ADR-RES ovarian)
30.8 µM: TGI (RXF 393 renal)
48 µM: TGI (RPMI-8226 leukemia)
65.5 µM: TGI (SW-620 colon)
41 µM: TGI (OVCAR-4 ovarian)

CC(=O)[CH-]C(=O)c1ccccc1.CC(=O)[CH-]C(=O)c1ccccc1.CC(C)CCCC(C)[C@H]1CCC2[C@@H]3CC=C4C[C@@H]([O-])CC[C@]4(C)C3CC[C@@]21C.CC(C)CCCC(C)[C@H]1CCC2[C@@H]3CC=C4C[C@@H]([O-])CC[C@]4(C)C3CC[C@@]21C.[Ti+4] (stereo partly specified)
> 100 µM: TGI (786-0 renal) | TGI (SK-MEL-5 melanoma) | TGI (SNB-75 CNS) | TGI (KM20L2 colon) | TGI (SF-539 CNS) | TGI (CCRF-CEM leukemia) | TGI (TK-10 renal) | TGI (HCC-2998 colon) | TGI (NCI-H460 lung) | TGI (MOLT-4 leukemia) | TGI (U251 CNS) | TGI (OVCAR-8 ovarian) | TGI (HT29 colon) | TGI (UO-31 renal) | TGI (HOP-92 NSCLC) | TGI (HCT-15 colon) | TGI (LXFL 529 NSCLC) | TGI (SK-MEL-28 melanoma) | TGI (UACC-62 melanoma) | TGI (COLO 205 colon) | TGI (NCI-H226 lung) | TGI (OVCAR-4 ovarian) | TGI (SF-268 CNS) | TGI (M14 melanoma) | TGI (RPMI-8226 leukemia) | TGI (K-562 leukemia) | TGI (NCI-H23 lung) | TGI (CAKI-1 renal) | TGI (ACHN renal) | TGI (SK-MEL-2 melanoma) | TGI (OVCAR-3 ovarian) | TGI (HOP-62 NSCLC) | TGI (SN12C renal) | TGI (A498 renal) | TGI (DLD-1 colon) | TGI (IGROV1 ovarian) | TGI (SW-620 colon) | TGI (SK-OV-3 ovarian) | TGI (NCI-H522 lung) | TGI (RXF 393 renal) | TGI (DMS 273 small cell lung) | TGI (HOP-18 NSCLC) | TGI (HCT-116 colon) | TGI (UACC-257 melanoma)
inactive: GI50 (786-0 renal) > 100 µM | GI50 (SK-MEL-5 melanoma) > 100 µM | GI50 (SNB-75 CNS) > 100 µM | GI50 (KM20L2 colon) > 100 µM | GI50 (SF-539 CNS) > 100 µM | GI50 (CCRF-CEM leukemia) > 100 µM | GI50 (TK-10 renal) > 100 µM | GI50 (HCC-2998 colon) > 100 µM | GI50 (NCI-H460 lung) > 100 µM | GI50 (MOLT-4 leukemia) > 100 µM | GI50 (U251 CNS) > 100 µM | GI50 (OVCAR-8 ovarian) > 100 µM | GI50 (HT29 colon) > 100 µM | GI50 (UO-31 renal) > 100 µM | GI50 (HOP-92 NSCLC) > 100 µM | GI50 (HCT-15 colon) > 100 µM | GI50 (LXFL 529 NSCLC) > 100 µM | GI50 (SK-MEL-28 melanoma) > 100 µM | GI50 (UACC-62 melanoma) > 100 µM | GI50 (COLO 205 colon) > 100 µM | GI50 (NCI-H226 lung) > 100 µM | GI50 (OVCAR-4 ovarian) > 100 µM | GI50 (SF-268 CNS) > 100 µM | GI50 (M14 melanoma) > 100 µM | GI50 (RPMI-8226 leukemia) > 100 µM | GI50 (K-562 leukemia) > 100 µM | GI50 (NCI-H23 lung) > 100 µM | GI50 (CAKI-1 renal) > 100 µM | GI50 (ACHN renal) > 100 µM | GI50 (SK-MEL-2 melanoma) > 100 µM | GI50 (OVCAR-3 ovarian) > 100 µM | GI50 (HOP-62 NSCLC) > 100 µM | GI50 (SN12C renal) > 100 µM | GI50 (A498 renal) > 100 µM | GI50 (DLD-1 colon) > 100 µM | GI50 (IGROV1 ovarian) > 100 µM | GI50 (SW-620 colon) > 100 µM | GI50 (SK-OV-3 ovarian) > 100 µM | GI50 (NCI-H522 lung) > 100 µM | GI50 (RXF 393 renal) > 100 µM | GI50 (DMS 273 small cell lung) > 100 µM | GI50 (HOP-18 NSCLC) > 100 µM | GI50 (HCT-116 colon) > 100 µM | GI50 (UACC-257 melanoma) > 100 µM
